Measurements taken from patent publication US11708348B2, “Protease inhibitors for treatment of coronavirus infections” (The Scripps Research Institute, priority 2021, dated 2023).
Read-outs that look alike come from different tables or passages of the source.

Test system: SARS-CoV-2 strain USA-WA1/2020
Experiment: microbe, parasite or virus in culture
Type: cell-based
Settings: Severe acute respiratory syndrome coronavirus 2, HeLa-ACE2, 24 h, read-out: EC50, uM (Hela)
[1] = HeLa-ACE2 cells, SARS-CoV-2 infection, 24 h, class symbols
[2] = HeLa-ACE2 cells, SARS-CoV-2 infection, 24 h

## O=C1NCC[C@H]1C[C@H](NC(=O)[C@@H]1CC2(CC2)CN1C(=O)C1(NC(=O)C(F)(F)F)CCC(F)(F)CC1)C(=O)COC(F)(F)F [Compound 680, (S)-5-(4,4-difluoro-1-(2,2,2-trifluoroacetamido)cyclohexane-1-carbonyl)-N-((S)-3-oxo-1-((S)-2-oxopyrrolidin-3-yl)-4-(trifluoromethoxy)butan-2-yl)-5-azaspiro[2.4]heptane-6-carboxamide]
  EC50: 0.2 to 0.5 µM

## CO[C@@H]1C[C@@H](C(=O)N[C@@H](C[C@@H]2CCNC2=O)C(=O)COC(F)(F)F)N(C(=O)C(=O)Nc2ccccc2F)C1 [Compound 258, (2S,4R)-1-(2-((2-fluorophenyl)amino)-2-oxoacetyl)-4-methoxy-N-((S)-3-oxo-1-((S)-2-oxopyrrolidin-3-yl)-4-(trifluoromethoxy)butan-2-yl)pyrrolidine-2-carboxamide]
HeLa-ACE2 cells, SARS-CoV-2 infection, 24 h, bound printed in cell
  EC50: > 1 µM

## O=C1NCC[C@H]1C[C@H](NC(=O)[C@@H]1CC2(CC2)CN1C(=O)[C@H](O)C(F)(F)F)C(=O)COC(F)(F)F [Compound 385, (S)-N-((S)-3-oxo-1-((S)-2-oxopyrrolidin-3-yl)-4-(trifluoromethoxy)butan-2-yl)-5-((S)-3,3,3-trifluoro-2-hydroxypropanoyl)-5-azaspiro[2.4]heptane-6-carboxamide]
[1]
  EC50: 0.05 to 0.2 µM

## CC(C)(C)[C@H](NC(=O)C(F)(F)F)C(=O)N1C[C@H]2[C@@H]([C@H]1C(=O)N[C@@H](C[C@@H]1CCNC1=O)C(=O)COC(F)(F)F)C2(C)C [Compound 264, (1R,2S,5S)-3-((S)-3,3-dimethyl-2-(2,2,2-trifluoroacetamido)butanoyl)-6,6-dimethyl-N—((S)-3-oxo-1-((S)-2-oxopyrrolidin-3-yl)-4-(trifluoromethoxy)butan-2-yl)-3-azabicyclo[3.1.0]hexane-2-carboxamide]
  EC50: < 0.05 µM

## CC1(C[C@H](NC(=O)C(=O)NC2(C)CC2)C(=O)N[C@@H](C[C@@H]2CCNC2=O)C(=O)COC(F)(F)F)CC1 [Compound 577, Nl-(l-methylcyclo-propyl)-N2-(3-(1-methylcyclopropyl)-1-oxo-1-(((S)-3-oxo-1-((S)-2-oxopyrrolidin-3-yl)-4-(trifluoromethoxy)butan-2-yl)amino)propan-2-yl)oxalamide]
[2]
  EC50: < 0.05 µM

## CC(C)(C)C[C@H](NC(=O)C(=O)NC(C)(C)C)C(=O)N[C@@H](C[C@@H]1CCNC1=O)C(=O)COC(F)(F)F [Compound 172, N1-(tert-butyl)-N2-((S)-4,4-dimethyl-1-oxo-1-(((S)-3-oxo-1-((S)-2-oxopyrrolidin-3-yl)-4-(trifluoromethoxy)butan-2-yl)amino)pentan-2-yl)oxalamide]
[1]
  EC50: < 0.05 µM

## COCC(C)(C)NC(=O)C(=O)N[C@@H](CC(C)C)C(=O)N[C@@H](C[C@@H]1CCNC1=O)C(=O)COC(F)(F)F [Compound 193, N1-(1-methoxy-2-methylpropan-2-yl)-N2-((S)-4-methyl-1-oxo-1-(((S)-3-oxo-1-((S)-2-oxopyrrolidin-3-yl)-4-(trifluoromethoxy)butan-2-yl)amino)pentan-2-yl)oxalamide]
[1]
  EC50: < 0.05 µM

## CC(C)C[C@H](NC(=O)C(=O)Nc1ccccc1F)C(=O)N[C@@H](CCC(=O)N(C)C)C(=O)COc1c(F)c(F)cc(F)c1F [Compound 123, N1-((S)-1-(((S)-6-(dimethylamino)-2,6-dioxo-1-(2,3,5,6-tetrafluorophenoxy)-hexan-3-yl)amino)-4-methyl-1-oxopentan-2-yl)-N2-(2-fluorophenyl)oxalamide]
[1]
  EC50: 0.05 to 0.2 µM

## C[C@](O)(C(=O)N1CC2(CC2)C[C@H]1C(=O)N[C@@H](C[C@@H]1CCNC1=O)C(=O)COC(F)(F)F)C(F)(F)F [Compound 700, (S)-N-((S)-3-oxo-1-((S)-2-oxopyrrolidin-3-yl)-4-(trifluoromethoxy)butan-2-yl)-5-((S)-3,3,3-trifluoro-2-hydroxy-2-methylpropanoyl)-5-azaspiro[2.4]heptane-6-carboxamide]
[2]
  EC50: 0.05 to 0.2 µM
